According to patent US20220257698A1, “ANGIOTENSIN TYPE 2 (AT2) RECEPTOR AGONISTS FOR USE IN THE TREATMENT OF CANCER” (LANTHIOPEP B.V., priority 2019, published 2022):

Legend:
[1] = test system: U87MG glioblastoma CDX; experiment: Tumor hemoglobin level (indirect angiogenesis) in U87MG CDX; format: in vivo, cd1 nu/nu mice (human GBM cell line); settings: KcAng(1-7) 1 μg/kg/d, Losartan 20 mg/kg/d, or both
Protocol: Efficacy of treatment was evaluated by: […] Mice with U87MG cell CDX were randomized at day 0. KcAng(1-7) was injected subcutaneously (1 μg/kg) on a daily basis. Losartan was administered intraperitoneal at 20 mg/kg/day. […] In brief, tumors were homogenized in double-distilled water. Eighty microliters of homogenates were mixed with 1 mL of Drabkin's solution and incubated for 15 min at room temperature. After centrifugation at 400×g for 5 min, the supernatants were subjected to absorbance measurement at 540 nm. The absorption, which is proportional to hemoglobin concentration, was divided by tumor weight.

[2] = test system: head & neck carcinoma PDX model HN10309; experiment: KcAng(1-7) on growth of head & neck carcinoma PDX HN10309 in mice; format: in vivo, NMRI nu/nu mice (human PDX)
Protocol: In vivo studies were conducted at EPO GmbH Berlin. Large studies (FIG. 1A, 2, 3, 4, 5) comprised 3 groups of 10 mice/group and 5 animals as reserve, as outlined in Table 1. Smaller studies (FIG. 1B, 1C, 1D) comprised 2 groups of mice of 3 mice per group. The animals were allocated to the various treatment groups (e.g. 0.2 μg/kg and 30 μg/kg) with a maximum of 10 animals per group. […] The groups received subcutaneous (s.c.) drug injection (for max. 28 days) as outlined in the Table 1.
NMRI nu/nu mice were used in this study. The animals were female at age of 6 to 8 weeks. The respective PDX tumors were inoculated subcutaneously (s.c.), and the tumors were grown to achieve palpable tumor sizes before start of the respective treatments. The PDX included breast (MaCa4151), colon (Co9689A), head & neck (HN10309), lung (Lu7433) and ovarian (OvCa13329) cancer (Table 2).
Treatment with KcAng(1-7) was started with palpable tumors after the randomization of animals regarding tumor volume. KcAng(1-7) was applied s.c. by daily injections at […] or 30 μg/kg dose for a maximum of 28 days (or earlier as defined by the humane end point for the study).
KcAng(1-7) was prepared as follows: The compounds was suspended in sterile PBS resulting in a clear solution. The remains of this formulation were stored at 4° C.
Tumor growth stimulatory or inhibitory activity of the KcAng(1-7) was evaluated by determination of tumor volumes (TV). During the study, tumor volumes and body weight were measured twice a week, and the ratio of the mean tumor volumes between the compound-treated group and the vehicle-treated group (T/C) was calculated.
Tumor volume=(tumor width)×(tumor width)×(tumor length)+2
T/C=T÷C • T: Mean estimated tumor volume of the compound-treated group • C: Mean estimated tumor volume of the vehicle-treated group

[3] = test system: U251MG glioblastoma CDX; experiment: Tumor hemoglobin level (indirect angiogenesis) in U251MG CDX; format: in vivo, cd1 nu/nu mice (human GBM cell line); settings: KcAng(1-7) 1 μg/kg/d, Losartan 20 mg/kg/d, or both
Protocol: Efficacy of treatment was evaluated by: […] In brief, tumors were homogenized in double-distilled water. Eighty microliters of homogenates were mixed with 1 mL of Drabkin's solution and incubated for 15 min at room temperature. After centrifugation at 400×g for 5 min, the supernatants were subjected to absorbance measurement at 540 nm. The absorption, which is proportional to hemoglobin concentration, was divided by tumor weight. Effect of KcAng(1-7) and Losartan against heterotopic U251MG cell culture-based xenografts (CDX) in mice. Animals were treated either with vehicle, treated with 20 mg/kg/d Losartan, treated with 1 μ[…](1-7) or treated with a combination of KcAng(1-7) and with Losartan.

[4] = Gr. B 0.2 μg/kg/d s.c., Day 35 (Meas. 1)
[5] = Gr. B 0.2 μg/kg/d s.c., Day 38 (Meas. 2)
[6] = Gr. B 0.2 μg/kg/d s.c., Day 41 (Meas. 3)
[7] = Gr. B 0.2 μg/kg/d s.c., Day 45 (Meas. 4)
[8] = Gr. B 0.2 μg/kg/d s.c., Day 49 (Meas. 5)
[9] = Gr. B 0.2 μg/kg/d s.c., Day 52 (Meas. 6)
[10] = Gr. B 0.2 μg/kg/d s.c., Day 55 (Meas. 7)
[11] = Gr. B 0.2 μg/kg/d s.c., Day 58 (Meas. 8)
[12] = Gr. B 0.2 μg/kg/d s.c., Day 63 (Meas. 9)
[13] = Gr. C 30 μg/kg/d s.c., Day 35 (Meas. 1)
[14] = Gr. C 30 μg/kg/d s.c., Day 38 (Meas. 2)
[15] = Gr. C 30 μg/kg/d s.c., Day 41 (Meas. 3)
[16] = Gr. C 30 μg/kg/d s.c., Day 45 (Meas. 4)
[17] = Gr. C 30 μg/kg/d s.c., Day 49 (Meas. 5)
[18] = Gr. C 30 μg/kg/d s.c., Day 52 (Meas. 6)
[19] = Gr. C 30 μg/kg/d s.c., Day 55 (Meas. 7)
[20] = Gr. C 30 μg/kg/d s.c., Day 58 (Meas. 8)
[21] = Gr. C 30 μg/kg/d s.c., Day 63 (Meas. 9)

## Lys-Asp-Arg-Val-Abu/Ala-Ile-His-Abu/Ala (KDRVAIHA; not fully specified; cyclic thioether (Abu/Ala bridge); VARIANT (5)..(5) /replace=“Abu”; VARIANT (8)..(8) /replace=“Abu”; SITE (1)..(8) /note=“Variant residues given in the sequence have no preference with respect to those in the annotations for variant positions”) [KcAng(1-7)]
[1]
  Tumor hemoglobin level, mean (± SEM): 8.8 ± 1.0 mg hemoglobin/g of tissue
[2]; 30 μg/kg, day 14 of the treatment
  optT/C: 71%
[2]; 0.2 and 30 μg/kg, 28 days
  effect on tumor volume: did not result in a reduction or increase in tumor volume
[2]; [4]
  RTV Mean: 1
  RTV Median: 1
  T/C: 100.1%
  Tumor Vol. Mean: 0.083 cm^3
  Tumor Vol. Median: 0.064 cm^3
[2]; [5]
  RTV Mean: 1.6
  RTV Median: 1.7
  T/C: 107.9%
  Tumor Vol. Mean: 0.128 cm^3
  Tumor Vol. Median: 0.085 cm^3
[2]; [6]
  RTV Mean: 2.1
  RTV Median: 2.1
  T/C: 100.6%
  Tumor Vol. Mean: 0.164 cm^3
  Tumor Vol. Median: 0.14 cm^3
[2]; [7]
  RTV Mean: 2.6
  RTV Median: 2.5
  T/C: 116.7%
  Tumor Vol. Mean: 0.217 cm^3
  Tumor Vol. Median: 0.158 cm^3
[2]; [8]
  RTV Mean: 3.3
  RTV Median: 3.2
  T/C: 104.4%
  Tumor Vol. Mean: 0.275 cm^3
  Tumor Vol. Median: 0.209 cm^3
[2]; [9]
  RTV Mean: 4.4
  RTV Median: 4
  T/C: 126.7%
  Tumor Vol. Mean: 0.367 cm^3
  Tumor Vol. Median: 0.303 cm^3
[2]; [10]
  RTV Mean: 5.4
  RTV Median: 4.8
  T/C: 126.5%
  Tumor Vol. Mean: 0.443 cm^3
  Tumor Vol. Median: 0.366 cm^3
[2]; [11]
  RTV Mean: 5.8
  RTV Median: 4.9
  T/C: 115.2%
  Tumor Vol. Mean: 0.473 cm^3
  Tumor Vol. Median: 0.437 cm^3
[2]; [12]
  RTV Mean: 8.9
  RTV Median: 7.3
  T/C: 120.4%
  Tumor Vol. Mean: 0.677 cm^3
  Tumor Vol. Median: 0.64 cm^3
[2]; [13]
  RTV Mean: 1
  RTV Median: 1
  T/C: 99.5%
  Tumor Vol. Mean: 0.083 cm^3
  Tumor Vol. Median: 0.077 cm^3
[2]; [14]
  RTV Mean: 1.3
  RTV Median: 1.3
  T/C: 83.5%
  Tumor Vol. Mean: 0.099 cm^3
  Tumor Vol. Median: 0.092 cm^3
[2]; [15]
  RTV Mean: 1.6
  RTV Median: 1.5
  T/C: 74.6%
  Tumor Vol. Mean: 0.122 cm^3
  Tumor Vol. Median: 0.117 cm^3
[2]; [16]
  RTV Mean: 1.8
  RTV Median: 1.7
  T/C: 75%
  Tumor Vol. Mean: 0.139 cm^3
  Tumor Vol. Median: 0.135 cm^3
[2]; [17]
  RTV Mean: 2.2
  RTV Median: 2.2
  T/C: 71.3%
  Tumor Vol. Mean: 0.188 cm^3
  Tumor Vol. Median: 0.187 cm^3
[2]; [18]
  RTV Mean: 2.8
  RTV Median: 2.9
  T/C: 89.8%
  Tumor Vol. Mean: 0.26 cm^3
  Tumor Vol. Median: 0.236 cm^3
[2]; [19]
  RTV Mean: 3.5
  RTV Median: 3.5
  T/C: 92.1%
  Tumor Vol. Mean: 0.323 cm^3
  Tumor Vol. Median: 0.283 cm^3
[2]; [20]
  RTV Mean: 3.9
  RTV Median: 4
  T/C: 89.3%
  Tumor Vol. Mean: 0.367 cm^3
  Tumor Vol. Median: 0.303 cm^3
[2]; [21]
  RTV Mean: 5.6
  RTV Median: 5.8
  T/C: 96.3%
  Tumor Vol. Mean: 0.541 cm^3
  Tumor Vol. Median: 0.505 cm^3
[3]
  Tumor hemoglobin level, mean (± SEM): 18.7 ± 2.1 mg Hb/g of tissue
